Results published in patent EP0079675A1, “Oxazolidinedione derivatives” (PFIZER INC., priority 1981, dated 1983).

What was measured:
[1] = biological target: T1, aldose reductase enzyme obtained from calf lens (Bos taurus, UniProt P16116); experiment: inhibition of aldose reductase enzyme activity (procedure of S. Hayman et al., modified by K. Sestanj et al.); format: biochemical; details: partially purified calf lens aldose reductase, read-out: Percent Inhibition (%); for inhibition at 10 µM: 10^-5M; for inhibition at 1 µM: 10^-6M; for inhibition at 0.1 µM: 10^-7M
T1 construct: partially purified aldose reductase enzyme obtained from calf lens; from tissue; host or cells: calf lens
Procedure: (§1) The activity of the compounds of the present invention, as agents for the control of chronic diabetic complications, is determined by their ability to successfully pass one or more of the following standard biological or pharmacological tests, viz., (1) measuring their ability to inhibit the enzyme activity of isolated aldose reductase; (2) measuring their ability to reduce or inhibit sorbitol accumulation in the sciatic nerve of acutely streptozotocinized (i.e., diabetic) rats; (3) measuring their ability to reverse already-elevated sorbitol levels in the sciatic nerve and lens of chronic streptozotocin-induced diabetic rats; (4) measuring their ability to prevent or inhibit galactitol formation in the lens of acutely galactosemic rats, and (5) measuring their ability to delay cataract formation and reduce the severity of lens opacities in chronic galactosemic rats.
The following s^piro-oxindole oxazolidinedione final products of Examples 1-4, respectively, were tested for their ability to reduce or inhibit aldose reductase enzyme activity via the procedure of S. Hayman et al., as described in the Journal of Biological Chemistry, Vol 240, p.. 877 (1965) and as modified by K. Sestanj et al. in U.S. Patent No. 3,821,383. In every case, the substrate employed was partially purified aldose reductase enzyme obtained from calf lens.

[2] = system: sorbitol levels in diabetic rats; experiment: inhibition of sorbitol formation/accumulation in diabetic rats; format: in vivo; details: oral route, dose levels ranging from 0.5 mg./kg. to 20 mg./kg.
Excerpt: As previously indicated, the spiro-oxindole oxazolidinedione compounds of this invention are readily adapted to therapeutic use as aldose reductase inhibitors for the control of chronic diabetic com^pli- cations, in view of their ability to reduce lens sorbitol levels in diabetic subjects to a statistically significant degree. […] Furthermore, the herein described compounds of this invention can be administered by either the oral or parenteral routes of administration. […]
as §1

Row | Structure (SMILES) | inhibition at 10 µM [1] [%] | inhibition at 1 µM [1] [%] | inhibition at 0.1 µM [1] [%] | inhibition at 100 µM ([1]; 10^-4M) [%] | inhibit the formation of sorbitol levels [2]
1 | O=C1NC(=O)C2(O1)C(=O)N(c1ccc(F)cc1)c1ccc(F)cc12 (centres unmarked) [Product of Example 1, 1-(p-fluorophenyl)-5-fluoro-spiro-[indoline-3,5-oxazolidine]-2,2',4'-trione] | 87 | 65 | 25 | – | –
2 | CC(C)N1C(=O)C2(OC(=O)NC2=O)c2cc(Cl)ccc21 (centres unmarked) [Product of Example 2, 1-isopropyl-5-chloro-s^piro-[indoline-3,5'-oxazolidine]-2,2',4'-trione] | 80 | 45 | 17 | – | –
3 | CN1C(=O)C2(OC(=O)NC2=O)c2cc(Cl)ccc21 (centres unmarked) [Product of Example 3] | 67 | 31 | 10 | – | –
4 | O=C1NC(=O)C2(O1)C(=O)N(Cc1ccc(Cl)cc1)c1ccc(Cl)cc12 (centres unmarked) [Product of Example 4, 1-(p-chlorobenzyl)-5-chloro-spiro-(indoline-3,5'-oxazolidine]-2,2',4'-trione] | 89 | 81 | 60 | 100 | to a significantly high degree
